What was measured:
[1] = tested on: MDA-MB-468 xenograft tumors; test: MDA-MB-468 xenograft tumor model in nude mice; format: in vivo; details: i.p. 40 mg/kg per day
Method: (§1) As evidence, SP-141 was administered to nude mice bearing MCF-7 and MDA-MB-468 xenograft tumors. SP-141 was administered by intraperitoneal (i.p.) injection at doses of 40 mg/kgn 1 per day for 42 and 30 days, respectively.
(§2) FIGS. 13-16 are presented to illustrate that. SP-141 suppresses breast xenograft tumor growth in vivo. FIGS. 13A and 13B illustrate tumor mass in nude mice bearing MCF-7 and MDA-MB-468, respectively. The xenograft tumors were treated with SP-141, which was administered by i.p. injection at 40 mg/kg 1 per day, 5 days per week for 42 and 30 days, respectively. FIGS. 14A and 14B illustrate the tumors after they were removed at the end of the experiments. The mice were also monitored for changes in body weight as a surrogate marker for toxicity in both the MCF-7 (as shown in FIG. 15A) and MDA-MB-468 (as shown if FIG. 15B) xenograft models. At the termination of the experiments, H&E staining of the paraffin sections of some organs from the mice bearing MCF-7 xenograft tumors was performed. (Mean±s.e.m., n>10 for each data point, two-sided Student's t-test, *P<0.01).

MDM2 protein [2] = biological target: T1, MDM2 protein (Homo sapiens, UniProt Q00987); test: Biacore assay (MDM2 immobilized on CM5 sensor chip); details: read-out: KD for binding to the MDM2 protein
T1 sequence (Q00987 whole entry): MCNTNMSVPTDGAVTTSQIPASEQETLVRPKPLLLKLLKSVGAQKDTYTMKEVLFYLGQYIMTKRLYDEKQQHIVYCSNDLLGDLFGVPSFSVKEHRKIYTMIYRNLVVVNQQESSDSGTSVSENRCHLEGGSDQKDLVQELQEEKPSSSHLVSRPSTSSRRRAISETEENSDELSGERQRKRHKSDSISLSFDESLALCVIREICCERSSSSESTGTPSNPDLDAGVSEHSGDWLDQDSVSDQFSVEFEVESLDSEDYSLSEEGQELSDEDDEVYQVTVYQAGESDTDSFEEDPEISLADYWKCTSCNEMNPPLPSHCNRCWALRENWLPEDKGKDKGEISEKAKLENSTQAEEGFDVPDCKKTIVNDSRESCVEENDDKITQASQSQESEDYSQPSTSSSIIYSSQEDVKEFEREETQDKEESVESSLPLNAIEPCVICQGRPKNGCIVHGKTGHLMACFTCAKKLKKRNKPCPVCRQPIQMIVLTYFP
From the text: (§3) The reduction is proportional to dose. Thus, SP-141 can occupy the p53-binding site on MDM2 as illustrated by FIG. 6. […] Thus, SP-141 serves as a specific MDM2 inhibitor with a high binding capacity for the MDM2 protein.
(§4) FIG. 7A illustrates a chart illustrating % inhibition. This is illustrative of competitive binding to recombinant human MDM2 proteins using an FP-based binding assay. […] Similarly, FIG. 7B illustrates a chart or responses illustrative of competitive KD values of SP-141 to MDM2 as determined using the Biacore assay. The MDM2 protein was immobilized on a CM5 sensor chip. […] It is noteworthy that all the assays were performed in triplicate, and all the experiments were repeated at least three times.

MDM2 protein [3] = test: Western blot of MDM2 expression in breast cancer cells; format: cell-based, human; details: multiple tested cell lines
Method: SP-141 also effects MDM2 expression. […] In the MCF-7 (p53 wt) cells, the wild-type p53 protein level increased, in accordance with an expected inhibition of MDM2. […] SP-141 increases the expression of cleaved PARP and Bax and decreases the expression of Bcl-2 and Cyclin E in a p53-independent manner.
(§5) FIGS. 8-12 are presented toillustrate that SP-141 induces breast cancer cell death. In experiments conducted by the inventors, cells were exposed to various concentrations of SP-141 for 72 hours, using the MTT assay to evaluate the cell viability and IC50 value. FIG. 9 provides a photograph of such exposure for 24 hours using the colony formation assay. FIG. 10A illustrates a chart associated with 48 hours for the apoptosis assay and FIG. 10B illustrates a similar chart associated with 24 hours for the proliferation assay. FIG. 11 illustrates 24 hour for the cell cycle distribution assay. FIG. 12 illustrates a western blot analysis of the expression of MDM2 and proteins related to apoptosis and cell cycle arrest in human breast cancer cells. All these assays were performed in triplicate, and all the experiments were repeated at least three times (mean±s.e.m., n=9 for each data point, two-sided Student's t-test. *Po 0.01).

[4] = tested on: MDM2 protein in MCF-7 and MDA-MB-468 cells; test: MDM2 protein degradation (cycloheximide chase, western blot); format: cell-based, human; details: 0.5 mM SP-141 24 hours, then cycloheximide
Method: SP-141 can also induce MDM2 protein degradation. Specifically. SP-141 can induce MDM2 inhibition in vitro and in vivo. […] The p53 protein was stabilized in MCF-7 cells, but not in the p53 mt […] cells.
MCF-7 and MDA-MB-468 cells were treated with SP-141 (0.5 mM), and then exposed to cycloheximide (CHX, 15 mg ml 1), an inhibitor of protein synthesis. The graphs in FIG. 20 show the quantification of the western blot data. Cells were treated with SP-141 (0.5 mM) for 24 hours, and then exposed to a proteasome inhibitor, MG 132 (25 mM), for an additional 6 hours. The protein levels of MDM2 were detected with western blot analysis, as illustrated in FIG. 21. Further, cells were transfected with MDM2 and ubiquitin plasmids, followed by treatment with SP-141 for 24 hours. The cells were then exposed to MG132 (25 mM) for an additional 6 hours, and the lysates were subjected to immunoprecipitation with an MDM2 antibody. Cells were transfected with a wild-type MDM2 plasmid or mutant MDM2 plasmid without E3 ligase activity (C464A). After treatment with SP-141 for 24 hours, MDM2 levels were detected with western blot analysis, as illustrated in FIG. 23. Representative images of MDM2 immunofluorescence in control and SP-141 (1 mM)-treated cells are illustrated in FIG. 24. B-actin and DAPI were used as internal references. All the experiments were repeated three times.

GST-MDM2 = GST-MDM2 (Homo sapiens, UniProt Q00987); test: Biotin-avidin pull-down assay with biotinylated SP-141; format: binding; details: biotin-SP-141 conjugate, avidin beads; purified GST negative control
GST-MDM2, sequence (Q00987 whole entry): as above
From the text: As illustrated in FIGS. 2 and 3.
A western blot analysis is illustrated in FIG. 5. […] Purified GST was used as a negative control. The bound protein was detected using anti-MDM2 and anti-GST antibodies.
The bound protein was detected using anti-MDM2 antibody.

[5] = tested on: MDA-MB-231-Luc breast cancer cells; test: Experimental metastasis assay; format: in vivo, nude mice; details: i.p. 20 mg/kg per day for 2 weeks; days 8 and 15
Method: To validate the anti-metastatic effects of SP-141 in vivo, an experimental metastasis assay can be performed. MDA-MB-231-Luc breast cancer cells can be intravenously injected into a tail vein of nulnu mice. The animals are randomly divided into a treatment group and a control group after cell injection. SP-141 can be administered by i.p injection at doses of 20 mg/kg, 1 per day for 2 weeks.
(§6) FIGS. 28-30 are provided to illustrate that SP-141 inhibits cell metastasis in vitro and in vivo. MDA-MB-231 cells were grown to confluence in a six-well plate, illustrated in FIG. 28. A scratch was made at experimental time zero, and then the cells were exposed to various concentrations of SP-141. The wells were imaged at different time points. All the experiments were repeated at least three times. The effects of SP-141 on the expression of EMT-related proteins in MDA-MB-231 cells is shown in the western blot analysis provided in FIG. 29. About 1×10^ 6 MDA-MB-231-Luc cells were intravenously injected into a tail vein of nude mice. SP-141 was administered by i.p. injection at doses of 20 mg kg, 1 per day, 5 days per week for 2 weeks. The luciferase signals in the mice were detected and photographed using an MS in vivo image system on days 1, 8, and 15, as shown in FIG. 30.

MDM2 protein [6] = biological target: T1, MDM2 protein; test: FP-based competitive binding assay
From the text: as §3, §4

[7] = tested on: MCF-7 cells (both p53 wt and p53 KD); test: Proliferation assay; format: cell-based, human; details: 0.5-mM concentration, 24 hours
Method: (§7) MDA-MB-468 cells are more sensitive to SP-141 treatment at higher concentrations than MCF-7 and MCF-7 p53 KD cells.
as §5

MCF-7 xenograft tumors = test: MCF-7 xenograft tumor model in nude mice; format: in vivo
Method: as §1, §2

breast cancer cell lines = test: Colony formation assay; format: cell-based, human; details: 24 hours exposure
Method: as §5

[8] = tested on: human breast cancer cell lines; test: Cell cycle distribution assay; format: cell-based; set-up: dose or concentration left out as unconfirmed; details: 24 hours
Method: as §7, §5

[9] = tested on: MDA-MB-231 human breast cancer cells; test: Wound healing assay (cell migration); format: cell-based; details: 0.1 or 0.2 mM SP-141, MDA-MB-231 cells
Method: SP-141 inhibits cell migration in vitro and in vivo. A crucial component of tumor cell invasion is cell migration. A wound healing assay can be used to investigate the effect of SP-141 on cancer cell motility, using MDA-MB-231 human breast cancer cells. The cells can be treated with the vehicle, or with 0.1 or 0.2 mM of SP-141, in order to evaluate the cell migration into the wound made in the cell monolayer.
as §6

p53 KO MCF-7 cells = test: Apoptosis assay; format: cell-based, human; details: 1-mM SP-141, 48 hours
Method: as §5

p53 wt MCF-7 cells = test: Apoptosis assay; format: cell-based, human; details: 1-mM SP-141, 48 hours
Method: as §5

p53 mt MDA-MB-468 cells = test: Apoptosis assay; format: cell-based, human; details: 1-mM SP-141, 48 hours
Method: as §5

## COc1ccc2[nH]c3c(-c4cccc5ccccc45)nccc3c2c1 [SP-141, 6-methoxy-1-(naphthalen-1-yl)-9 H-pyrido[3,4-b]indole]
[1]; MDA-MB-468 model, 30 days
  Host toxicity monitored by changes in body weight: no significant host toxicity
[1]; MDA-MB-468 xenograft, day 30
  Inhibition of xenograft tumor growth: 80%
MDM2 protein [2]
  Kd: 0.043 µM
MDM2 protein [3]
  MDM2 protein levels: decrease in a concentration-dependent manner
[4]
  Degradation rate of the MDM2 protein: increased the degradation rate of the MDM2 protein
GST-MDM2
  Binding to MDM2 versus GST (pull-down): binds to MDM2, but not GST
[5]
  Effect on metastasis (luciferase signals in lung tissues): decreases the metastasis of breast cancer cells
MDM2 protein [6]
  Ki: 0.028 ± 0.006 µM
[7]
  Effect on cell proliferation: significant decrease in proliferation
MCF-7 xenograft tumors; MCF-7 model, i.p. 40 mg/kg per day, 42 days
  Host toxicity monitored by changes in body weight: no significant host toxicity
MCF-7 xenograft tumors; MCF-7 xenograft, i.p. 40 mg/kg per day, day 42
  Inhibition of xenograft tumor growth: 82%
MCF-7 xenograft tumors; mice bearing MCF-7 xenograft tumors, 40 mg/kg per day
  Organ abnormalities at necropsy / histological examination: no gross organ (liver, lung, kidney, spleen, heart or brain) abnormalities
Breast cancer cell lines
  Effect on cancer cell colony formation: inhibit cancer cell colony formation in a concentration-dependent manner
[8]
  Effect on cell cycle: induces cell cycle arrest in the G2 phase
[9]
  Effect on cell migration into the wound: significantly decreased the cell migration
p53 KO MCF-7 cells
  Increase of apoptotic index: 7 fold
p53 wt MCF-7 cells
  Increase of apoptotic index: 14 fold
p53 mt MDA-MB-468 cells
  Increase of apoptotic index: 11 fold

— patent publication US10472355B2, “Cancer treatment utilizing SP-141 to bind with MDM2 and act as an inhibitor of MDM2 expression” (Texas Tech University System, priority 2014, dated 2019)
